From publication PMC8765048 (JCI Insight, 2022)

Tests used:
Experiment in all cases: microbe, parasite or virus in culture
Type in all cases: cell-based
SARS-CoV-2 variants [1] = details: Severe acute respiratory syndrome coronavirus 2, Vero C1008
SARS-CoV-2 variants [2] = details: Severe acute respiratory syndrome coronavirus 2, Calu-3
SARS-CoV-2 = details: Severe acute respiratory syndrome coronavirus 2; read-out: IC50 values against all viral variants and in all examined cell types

SMILES | IC50 (SARS-CoV-2 variants [1]) | IC90 (SARS-CoV-2 variants [1]) | IC50 (SARS-CoV-2 variants [2]) | IC90 (SARS-CoV-2 variants [2]) | IC50 (SARS-CoV-2)
CCC(CC)COC(=O)[C@H](C)N[P@](=O)(OC[C@H]1O[C@@](C#N)(c2ccc3c(N)ncnn23)[C@H](O)[C@@H]1O)Oc1ccccc1 [Remdesivir, remdesivir, reference compound] | 2100 ± 516 nM | 4450 ± 829 nM | 2290 ± 449 nM | 7200 ± 1000 nM | –
NC(=O)c1cn([C@@H]2O[C@H](CO)[C@@H](O)[C@H]2O)c2ncnc(N)c12 [Sangivamycin, sangivamycin] | 42 ± 8.8 nM | 220 ± 42.1 nM | 64.3 ± 4.7 nM | 255 ± 46.1 nM | 14 to 82 nM
